Source: patent publication US20030212104A1, “Treatment of diabetes and diabetic complications with NHE-1 inhibitors” (Pfizer Inc., priority 2002, published 2003)

Tested on: diabetic ob/ob mice
Experiment: Antidiabetic effect in diabetic ob/ob mice (plasma glucose, insulin, triglyceride)
Type: in vivo
Excerpt: Five to eight week old male C57BLU6J-ob/ob mice (obtained from Jackson Laboratory, Bar Harbor, Me.) are housed five per cage under standard animal care practices. After a one week acclimation period, the animals are weighed and 25 microliters of blood are collected from the retro-orbital sinus prior to any treatment. The blood sample is immediately diluted 1:5 with saline containing 0.025% sodium heparin, and held on ice for metabolite analysis. Animals are assigned to treatment groups so that each group has a similar mean for plasma glucose concentration. After group assignment, animals are dosed orally each day for four days with the vehicle consisting of either: (1) 0.25% w/v methyl cellulose in water without pH adjustment; or (2) 0.1% Pluronic® P105 Block Copolymer Surfactant (BASF Corporation, Parsippany, N.J.) in 0.1% saline without pH adjustment. On day 5, the animals are weighed again and then dosed orally with a test compound or the vehicle alone. All compounds are administered in vehicle consisting of either: (1) 0.25% w/v methyl cellulose in water; or 3) neat PEG 400 without pH adjustment; (2) 10% DMSO/O.1% Pluronic® in 0.1% saline without pH adjustment; or 3) neat PEG 400 without pH adjustment. The animals are then bled from the retro-orbital sinus three hours later for determination of blood metabolite levels. The freshly collected samples are centrifuged for two minutes at 10,000×g at room temperature. The supernatant is analyzed for glucose, for example, by the Abbott VP™ (Abbott Laboratories, Diagnostics Division, Irving, Tex.) and VP Super System® Autoanalyzer (Abbott Laboratories, Irving, Tex.), or by the Abbott Spectrum CCX™ (Abbott Laboratories, Irving, Tex.) using the A-Gent™ Glucose-UV Test reagent system (Abbott Laboratories, Irving, Tex.) (a modification of the method of Richterich and Dauwalder, Schweizerische Medizinische Wochenschrift, 101: 860 (1971)) (hexokinase method) using a 100 mg/dl standard. Plasma glucose is then calculated by the equation: Plasma glucose (mg/dl)=Sample value×8.14
where 8.14 is the dilution factor, adjusted for plasma hematocrit (assuming the hematocrit is 44%).
Hypoglycemic activity of the test compounds is determined by statistical analysis (unpaired t-test) of the mean plasma glucose concentration between the test compound group and vehicle-treated group on day 5. The above assay carried out with a range of doses of a test compound allows the determination of an approximate minimal effective dose (MED) value for the in vivo reduction of plasma glucose concentration.
Five to eight week old male C57BL/6J-ob/ob mice (obtained from Jackson Laboratory, Bar Harbor, Me.) are housed five per cage under standard animal care practices and fed standard rodent diet ad libitum. After a one week acclimation period, the animals are weighed and 25 microliters of blood are collected from the retro-orbital sinus prior to any treatment. The blood sample is immediately diluted 1:5 with saline containing 0.025% sodium heparin, and held on ice for plasma glucose analysis. Animals are assigned to treatment groups so that each group has a similar mean for plasma glucose concentration. The compound to be tested is administered by oral gavage as an about 0.02% to 2.0% solution (weight/volume (w/v)) in either (1) 10% DMSO/0.1% Pluronic® P105 Block Copolymer Surfactant (BASF Corporation, Parsippany, N.J.) in 0.1% saline without pH adjustment or (2) 0.25% w/v methylcellulose in water without pH adjustment. Alternatively, the compound to be tested can be administered by oral gavage dissolved in or in suspension in neat PEG 400. Single daily dosing (s.i.d.), twice daily dosing (b.i.d.) or other dosing regimen is maintained for 1 to, for example, 15 days. Control mice receive the 10% DMSO/0.1% Pluronic® P105 in 0.1 % saline without pH adjustment or the 0.25% w/v methylcellulose in water without pH adjustment, or the neat PEG 400 without pH adjustment. […]

[1] = Study 1 conclusion: diabetic ob/ob mice, 20 mg/kg qd for five days
[2] = Study 3 conclusion: diabetic ob/ob mice, 20 mg/kg bid for seven days

| Molecule | Day 5, 3h post-dose plasma insulin concentration (Study 1: ob/ob mice n=10, 20 mg/kg qd for five days, mean ± SD, vehicle control 57.7 ± 24.5, p = 0.000331) | Day 5, 3h post-dose plasma glucose concentration (Study 1: ob/ob mice n=10, 20 mg/kg qd for five days, mean ± SD, vehicle control 482 ± 139, p = 0.0498) | Plasma glucose concentration compared to the vehicle control group [1] | Plasma insulin concentration compared to the vehicle control group [1] | Day 5, 3h post-dose plasma insulin concentration (Study 2: ob/ob mice n=10, 20 mg/kg bid for four days plus AM dose on fifth day, mean ± SD, vehicle control 10.0 ± 6.8) | Day 5, 3h post-dose plasma glucose concentration (Study 2: ob/ob mice n=10, 20 mg/kg bid for four days plus AM dose on fifth day, mean ± SD, vehicle control 322 ± 72, p = 0.0003) | Plasma glucose concentration compared to the vehicle control group (Study 2 conclusion: diabetic ob/ob mice, 20 mg/kg bid for four days) | Day 8, 3h post-dose plasma triglyceride concentration (Study 3: ob/ob mice n=15, 20 mg/kg bid for seven days plus AM dose on eighth day, mean ± SD, vehicle control 167 ± 44, p = 0.0002) | Day 8, 3h post-dose plasma glucose concentration (Study 3: ob/ob mice n=15, 20 mg/kg bid for seven days plus AM dose on eighth day, mean ± SD, vehicle control 397 ± 134, p = 0.0001) | Plasma glucose concentration compared to the vehicle control group [2] | Plasma insulin concentration compared to the vehicle control group [2] | Plasma triglyceride concentration compared to the vehicle control group [2] |
| --- | --- | --- | --- | --- | --- | --- | --- | --- | --- | --- | --- | --- |
| N=C(N)NC(=O)c1cnn(-c2cccc3ncccc23)c1C1CC1 [[5-cyclopropyl-1-(quinolin-5-yl)-1H-pyrazole-4-carbonyl]guanidine] | 20.5 ± 10.3 µg/L | 371 ± 90 mg/dL | significantly reduced | significantly reduced | – | – | – | – | – | – | – | – |
| [1-(2-trifluoromethyl-4-chlorophenyl)-5-cyclopropyl-1H-pyrazole-4-carbonyl]-guanidine | – | – | – | – | 11.1 ± 9.0 µg/L | 195 ± 50 mg/dL | significantly reduced | 107 ± 24 mg/dL | 204 ± 69 mg/dL | significantly reduced | significantly reduced | significantly reduced |
